Reference: ChEMBL document CHEMBL5352456, “Isocyanides in med chem: A scaffold hopping approach for the identification of novel 4-isocyanophenylamides as potent antibacterial agents against methicillin-resistant Staphylococcusaureus” (Eur J Med Chem, 2023)
Activity calls are given as the source filed them. The rule behind the calls is not given here.

System: Staphylococcus epidermidis
Test: Antibacterial activity against Staphylococcus epidermidis ATCC 12228 assessed as reduction in microbial growth measured for 16 to 20 hrs by microdilution assay
Type: functional
Conditions: time 16-20 hrs

Compound	MIC [µM]
[C-]#[N+]c1ccc(NC(=O)COc2ccccc2)cc1	0.5
O=C(O)c1cn(C2CC2)c2cc(N3CCNCC3)c(F)cc2c1=O [CIPROFLOXACIN]	0.38
[C-]#[N+]c1ccc(NC(=O)Cc2cccc(Cl)c2)cc1	0.5

System: Osteoblast
Test: Cytotoxicity against human Osteoblast cells assessed as reduction in cell viability measured at 128 uM measured for 24 hrs by MTT assay
Type: toxicity, cell-based
Conditions: not given

Compound	Activity [%]
[C-]#[N+]c1ccc(NC(=O)COc2ccccc2)cc1	> 70
[C-]#[N+]c1ccc(NC(=O)Cc2cccc(Cl)c2)cc1	> 70

System: Staphylococcus aureus
Test: Additive antibacterial activity against methicillin-resistant Staphylococcus aureus assessed as fractional inhibitory concentration index in presence of ciprofloxacin by checker board method
Type: functional
Conditions: not given

Compound	fractional inhibitory concentration index (FICI)
[C-]#[N+]c1ccc(NC(=O)Cc2cccc(Cl)c2)cc1	0.75

System: not listed separately
Test: Metabolic stability in human plasma assessed as parent compound remaining at 50 uM incubated for 60 mins by LC-UV analysis
Type: ADME, cell-free
Conditions: read-out: Stability

Compound	remaining at 1 h, 50 µM [%]
[C-]#[N+]c1ccc(NC(=O)Cc2cccc(Cl)c2)cc1	> 99

System: Staphylococcus aureus
Test: Bactericidal activity against methicillin-resistant Staphylococcus aureus ATCC 43300 incubated for 24 hrs by time kill assay
Type: functional
Conditions: not given

Compound	Activity
[C-]#[N+]c1ccc(NC(=O)COc2ccccc2)cc1	>=99.9%
[C-]#[N+]c1ccc(NC(=O)Cc2cccc(Cl)c2)cc1	>=99.9%

System: Staphylococcus aureus
Test: Antibacterial activity against Staphylococcus aureus ATCC 6538 assessed as reduction in microbial growth measured for 16 to 20 hrs by microdilution assay
Type: functional
Conditions: time 16-20 hrs

Compound	MIC [µM]
[C-]#[N+]c1ccc(NC(=O)COc2ccccc2)cc1	8
O=C(O)c1cn(C2CC2)c2cc(N3CCNCC3)c(F)cc2c1=O [CIPROFLOXACIN]	0.38
[C-]#[N+]c1ccc(NC(=O)Cc2cccc(Cl)c2)cc1	8

System: Osteoblast
Test: Cytotoxicity against human Osteoblast cells assessed as reduction in cell viability measured at 64 to 128 uM measured for 24 hrs by MTT assay
Type: toxicity, cell-based
Conditions: dose 64-128 µM

Compound	Activity
[C-]#[N+]c1ccc(NC(=O)COc2ccccc2)cc1	Non-Toxic
[C-]#[N+]c1ccc(NC(=O)Cc2cccc(Cl)c2)cc1	Non-Toxic

System: Staphylococcus aureus
Test: Antibacterial activity against Staphylococcus aureus ATCC 6538 assessed as reduction in cell surface hydrophobicity
Type: functional, organism-based
Conditions: not given

Compound	Activity
[C-]#[N+]c1ccc(NC(=O)COc2ccccc2)cc1	inactive
[C-]#[N+]c1ccc(NC(=O)Cc2cccc(Cl)c2)cc1	inactive

System: Staphylococcus epidermidis
Test: Antibacterial activity against Staphylococcus epidermidis ATCC 35984 assessed as reduction in microbial growth measured for 16 to 20 hrs by microdilution assay
Type: functional
Conditions: time 16-20 hrs

Compound	MIC [µM]
[C-]#[N+]c1ccc(NC(=O)COc2ccccc2)cc1	0.25
O=C(O)c1cn(C2CC2)c2cc(N3CCNCC3)c(F)cc2c1=O [CIPROFLOXACIN]	0.19
[C-]#[N+]c1ccc(NC(=O)Cc2cccc(Cl)c2)cc1	0.25

System: Staphylococcus aureus
Test: Antibacterial activity against Staphylococcus aureus ATCC 25923 assessed as reduction in microbial growth measured for 16 to 20 hrs by microdilution assay
Type: functional
Conditions: time 16-20 hrs

Compound	MIC [µM]
[C-]#[N+]c1ccc(NC(=O)COc2ccccc2)cc1	2
O=C(O)c1cn(C2CC2)c2cc(N3CCNCC3)c(F)cc2c1=O [CIPROFLOXACIN]	0.75
[C-]#[N+]c1ccc(NC(=O)Cc2cccc(Cl)c2)cc1	2

System: Staphylococcus aureus
Test: Antibacterial activity against methicillin-resistant Staphylococcus aureus ATCC 33592 assessed as reduction in microbial growth measured for 16 to 20 hrs by microdilution assay
Type: functional
Conditions: time 16-20 hrs

Compound	MIC [µM]
[C-]#[N+]c1ccc(NC(=O)COc2ccccc2)cc1	4
O=C(O)c1cn(C2CC2)c2cc(N3CCNCC3)c(F)cc2c1=O [CIPROFLOXACIN]	0.75
[C-]#[N+]c1ccc(NC(=O)Cc2cccc(Cl)c2)cc1	4

System: not listed separately
Test: Metabolic stability in human liver microsome assessed as intrinsic clearance at 5 uM incubated for 1 hr in presence of NADPH regenerating system and GSH by LC-UV analysis
Type: ADME
Conditions: liver microsomes, read-out: CLH

Compound	microsomal CLint at 5 µM [µL/min/mg]
[C-]#[N+]c1ccc(NC(=O)Cc2cccc(Cl)c2)cc1	24.4

System: Staphylococcus aureus
Test: Anti-biofilm activity in Staphylococcus aureus ATCC 6538 assessed as inhibition of biofilm formation at 128 uM measured for 24 hrs by MTT assay
Type: functional
Design: scale not given: the % may be the effect or the level left
Conditions: not given

Compound	Activity [%]
[C-]#[N+]c1ccc(NC(=O)COc2ccccc2)cc1	94
[C-]#[N+]c1ccc(NC(=O)Cc2cccc(Cl)c2)cc1	94

System: Staphylococcus aureus
Test: Antibacterial activity against Staphylococcus aureus ATCC 29213 assessed as reduction in microbial growth measured for 16 to 20 hrs by microdilution assay
Type: functional
Conditions: time 16-20 hrs

Compound	MIC [µM]
[C-]#[N+]c1ccc(NC(=O)COc2ccccc2)cc1	8
O=C(O)c1cn(C2CC2)c2cc(N3CCNCC3)c(F)cc2c1=O [CIPROFLOXACIN]	0.75
[C-]#[N+]c1ccc(NC(=O)Cc2cccc(Cl)c2)cc1	8

System: Staphylococcus aureus
Test: Anti-biofilm activity in Staphylococcus aureus ATCC 6538 assessed as inhibition of biofilm formation upto 128 uM measured for 24 hrs by MTT assay
Type: functional, organism-based
Conditions: not given

Compound	Activity
[C-]#[N+]c1ccc(NC(=O)COc2ccccc2)cc1	inactive
[C-]#[N+]c1ccc(NC(=O)Cc2cccc(Cl)c2)cc1	inactive

System: Staphylococcus aureus
Test: Additive antibacterial activity against methicillin-resistant Staphylococcus aureus assessed as fractional inhibitory concentration index in presence of tetracycline by checker board method
Type: functional
Conditions: not given

Compound	fractional inhibitory concentration index (FICI)
[C-]#[N+]c1ccc(NC(=O)COc2ccccc2)cc1	0.75
[C-]#[N+]c1ccc(NC(=O)Cc2cccc(Cl)c2)cc1	0.75

System: Staphylococcus epidermidis
Test: Antibacterial activity against Staphylococcus epidermidis ATCC 49134 assessed as reduction in microbial growth measured for 16 to 20 hrs by microdilution assay
Type: functional
Conditions: time 16-20 hrs

Compound	MIC [µM]
[C-]#[N+]c1ccc(NC(=O)COc2ccccc2)cc1	0.25
O=C(O)c1cn(C2CC2)c2cc(N3CCNCC3)c(F)cc2c1=O [CIPROFLOXACIN]	0.38
[C-]#[N+]c1ccc(NC(=O)Cc2cccc(Cl)c2)cc1	0.25

System: HaCaT
Test: Cytotoxicity against human HaCaT cells assessed as reduction in cell viability measured at 64 to 128 uM measured for 24 hrs by MTT assay
Type: toxicity, cell-based
Conditions: dose 64-128 µM

Compound	Activity
[C-]#[N+]c1ccc(NC(=O)COc2ccccc2)cc1	Non-Toxic
[C-]#[N+]c1ccc(NC(=O)Cc2cccc(Cl)c2)cc1	Non-Toxic

System: Escherichia coli
Test: Antibacterial activity against Escherichia coli ATCC 25922 assessed as inhibition of bacterial growth measured for 16 to 20 hrs by microdilution assay
Type: functional
Conditions: time 16-20 hrs

Compound	MIC [µM]
[C-]#[N+]c1ccc(NC(=O)COc2ccccc2)cc1	≥ 64
[C-]#[N+]c1ccc(NC(=O)Cc2cccc(Cl)c2)cc1	≥ 64

System: Staphylococcus aureus
Test: Bactericidal activity against methicillin-resistant Staphylococcus aureus ATCC 43300 measured for 24 hrs by time kill assay
Type: functional, organism-based
Conditions: not given

Compound	Activity
[C-]#[N+]c1ccc(NC(=O)COc2ccccc2)cc1	Active
[C-]#[N+]c1ccc(NC(=O)Cc2cccc(Cl)c2)cc1	Active

System: not listed separately
Test: Metabolic stability in human liver microsome assessed as parent compound remaining at 50 uM incubated for 1 hr in presence of NADPH regenerating system and GSH by LC-UV analysis
Type: ADME
Conditions: liver microsomes, read-out: Stability

Compound	remaining at 1 h, 50 µM [%]
[C-]#[N+]c1ccc(NC(=O)Cc2cccc(Cl)c2)cc1	82

System: Staphylococcus aureus
Test: Resistance development in methicillin-resistant Staphylococcus aureus ATCC 43300 assessed as fold increase in MIC after 10 passage
Type: functional
Conditions: not given

Compound	fold change (FC)
[C-]#[N+]c1ccc(NC(=O)COc2ccccc2)cc1	>4
[C-]#[N+]c1ccc(NC(=O)Cc2cccc(Cl)c2)cc1	>4

System: Staphylococcus aureus
Test: Antibacterial activity against methicillin-resistant Staphylococcus aureus ATCC 43300 assessed as reduction in microbial growth measured for 16 to 20 hrs by microdilution assay
Type: functional
Conditions: time 16-20 hrs

Compound	MIC [µM]
[C-]#[N+]c1ccc(NC(=O)COc2ccccc2)cc1	2
O=C(O)c1cn(C2CC2)c2cc(N3CCNCC3)c(F)cc2c1=O [CIPROFLOXACIN]	0.75
[C-]#[N+]c1ccc(NC(=O)Cc2cccc(Cl)c2)cc1	4

System: HaCaT
Test: Cytotoxicity against human HaCaT cells assessed as reduction in cell viability measured at 128 uM measured for 24 hrs by MTT assay
Type: toxicity, cell-based
Conditions: not given

Compound	Activity [%]
[C-]#[N+]c1ccc(NC(=O)COc2ccccc2)cc1	< 70

System: Klebsiella pneumoniae
Test: Antibacterial activity against Klebsiella pneumoniae ATCC 700603 assessed as inhibition of bacterial growth measured for 16 to 20 hrs by microdilution assay
Type: functional
Conditions: time 16-20 hrs

Compound	MIC [µM]
[C-]#[N+]c1ccc(NC(=O)COc2ccccc2)cc1	≥ 64
[C-]#[N+]c1ccc(NC(=O)Cc2cccc(Cl)c2)cc1	≥ 64

System: Staphylococcus aureus
Test: Anti-biofilm activity in Staphylococcus aureus ATCC 6538 assessed as inhibition of biofilm formation at 16 uM measured for 24 hrs by MTT assay
Type: functional
Design: scale not given: the % may be the effect or the level left
Conditions: not given

Compound	Activity [%]
[C-]#[N+]c1ccc(NC(=O)COc2ccccc2)cc1	10
[C-]#[N+]c1ccc(NC(=O)Cc2cccc(Cl)c2)cc1	10

System: Staphylococcus aureus
Test: Antibacterial activity against methicillin-resistant Staphylococcus aureus ATCC 43300 assessed as reduction in microbial growth by microdilution assay
Type: functional
Conditions: not given

Compound	MIC [µM]
[C-]#[N+]c1ccc(NC(=O)COc2ccccc2)cc1	4
O=C(O)c1cn(C2CC2)c2cc(N3CCNCC3)c(F)cc2c1=O [CIPROFLOXACIN]	1
[C-]#[N+]c1ccc(NC(=O)Cc2cccc(Cl)c2)cc1	4

System: not listed separately
Test: Metabolic stability in human liver microsome assessed as half life at 5 uM incubated for 1 hr in presence of NADPH regenerating system and GSH by LC-UV analysis
Type: ADME
Conditions: liver microsomes

Compound	half-life at 5 µM [min]
[C-]#[N+]c1ccc(NC(=O)Cc2cccc(Cl)c2)cc1	26.2

System: Pseudomonas aeruginosa
Test: Antibacterial activity against Pseudomonas aeruginosa ATCC 10145 assessed as inhibition of bacterial growth measured for 16 to 20 hrs by microdilution assay
Type: functional
Conditions: time 16-20 hrs

Compound	MIC [µM]
[C-]#[N+]c1ccc(NC(=O)COc2ccccc2)cc1	≥ 64
[C-]#[N+]c1ccc(NC(=O)Cc2cccc(Cl)c2)cc1	≥ 64

System: Staphylococcus aureus
Test: Induction of cell membrane permeability in Staphylococcus aureus ATCC 6538
Type: functional, organism-based
Conditions: not given

Compound	Activity
[C-]#[N+]c1ccc(NC(=O)COc2ccccc2)cc1	Active
[C-]#[N+]c1ccc(NC(=O)Cc2cccc(Cl)c2)cc1	Active

System: not listed separately
Test: Metabolic stability in rat liver microsome assessed as parent compound remaining at 50 uM incubated for 1 hr in presence of NADPH regenerating system and GSH by LC-UV analysis
Type: ADME
Conditions: liver microsomes, read-out: Stability

Compound	remaining at 1 h, 50 µM [%]
[C-]#[N+]c1ccc(NC(=O)Cc2cccc(Cl)c2)cc1	53
